According to US20150005288A1, “SUBSTITUTED PHENYLIMIDAZOPYRAZOLES AND USE THEREOF” (Bayer Intellectual Property GmbH, priority 2012, published 2015):

Target: T1, intracellular domain of human Tie2 (GST fusion protein) (Homo sapiens, UniProt Q02763)
T1 construct: intracellular domain of human Tie2 (amino acids 776-1124); made in house; host or cells: Baculovirus-infected insect cells (Hi5)
Assay: Tie2 kinase assay (Tie2-TR-FRET)
Type: biochemical
Conditions: ATP concentration 1 mM, in some cases means of several independent determinations
Outline: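 GST fusion of human Tie2 intracellular domain (aa 776-1124, Hi5-expressed), ~30 ng/ml, pre-incubated 15 min with compound, then 1 mM ATP and 1 μM biotinylated peptide, 60 min at 22 °C, pH 7. TR-FRET (Eu anti-phosphotyrosine/streptavidin-XL665, 665/620 nm ratio). […] 20 μM–0.073 nM in duplicate; IC50 by 4-parameter fit.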

T1 sequence (Q02763 776-1124): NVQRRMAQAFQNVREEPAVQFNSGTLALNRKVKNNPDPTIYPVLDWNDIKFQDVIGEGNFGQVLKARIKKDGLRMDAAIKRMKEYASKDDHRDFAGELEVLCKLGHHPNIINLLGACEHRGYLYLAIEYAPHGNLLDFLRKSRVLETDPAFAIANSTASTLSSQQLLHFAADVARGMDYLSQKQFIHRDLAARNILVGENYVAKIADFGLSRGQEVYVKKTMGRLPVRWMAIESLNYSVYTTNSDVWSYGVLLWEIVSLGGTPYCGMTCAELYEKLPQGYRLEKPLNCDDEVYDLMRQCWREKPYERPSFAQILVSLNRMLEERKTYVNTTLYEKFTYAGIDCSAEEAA

SMILES | IC50
Cc1ccc(NC(=O)c2cc(N3CCCC3)ccc2Cl)cc1-n1ccn2nc(-c3cccnc3)cc12 [Example 57, 2-Chloro-N-{4-methyl-3-[6-(pyridin-3-yl)-1H-imidazo[1,2-b]pyrazol-1-yl]phenyl}-5-(pyrrolidin-1-yl)benzamide] | 995 nM
Cc1cc(C)c(-n2ccn3nc(-c4cccnc4)cc23)cc1NC(=O)c1cccc(OCCN(C)C)c1 [Example 137, 3-[2-(Dimethylamino)ethoxy]-N-{2,4-dimethyl-5-[6-(pyridin-3-yl)-1H-imidazo[1,2-b]pyrazol-1-yl]phenyl}benzamide] | 409 nM
Cc1cc(C)c(-n2ccn3nc(-c4cccnc4)cc23)cc1NC(=O)c1cc(CC(C)(C)O)cc(S(F)(F)(F)(F)F)c1 [Example 154, N-{2,4-Dimethyl-5-[6-(pyridin-3-yl)-1H-imidazo[1,2-b]pyrazol-1-yl]phenyl}-3-(2-hydroxy-2-methylpropyl)-5-(pentafluoro-λ^6-sulphanyl)benzamide] | 0.4 nM
Cc1cc(NC(=O)c2cccc(S(F)(F)(F)(F)F)c2)cc(-n2ccn3nc(-c4cccnc4)cc23)c1C [Example 100, N-{3,4-Dimethyl-5-[6-(pyridin-3-yl)-1H-imidazo[1,2-b]pyrazol-1-yl]phenyl}-3-(pentafluoro-λ^6-sulphanyl)benzamide] | 175 nM
Cc1cc(F)c(NC(=O)c2cc(C#N)cc(C(C)(C)C)c2)cc1-n1ccn2nc(-c3cccnc3)cc12 [Example 118, 3-tert-Butyl-5-cyano-N-{2-fluoro-4-methyl-5-[6-(pyridin-3-yl)-1H-imidazo[1,2-b]pyrazol-1-yl]-phenyl}benzamide] | 0.4 nM
Cc1ccc(NC(=O)c2cccc(S(F)(F)(F)(F)F)c2)cc1-n1ccn2nc(-c3cncnc3)cc12 [Example 163, N-{4-Methyl-3-[6-(pyrimidin-5-yl)-1H-imidazo[1,2-b]pyrazol-1-yl]phenyl}-3-(pentafluoro-λ^6-sulphanyl)benzamide] | 8.9 nM
N#Cc1cc(C(=O)Nc2cccc(-n3ccn4nc(-c5cccnc5)cc34)c2O)cc(S(F)(F)(F)(F)F)c1 [Example 83, 3-Cyano-N-{2-hydroxy-3-[6-(pyridin-3-yl)-1H-imidazo[1,2-b]pyrazol-1-yl]phenyl}-5-(pentafluoro-λ^6-sulphanyl)benzamide] | 110 nM
Cc1cc(C(=O)Nc2ccc(C)c(-n3ccn4nc(-c5cccnc5)cc34)c2)cc(S(F)(F)(F)(F)F)c1 [Example 30, 3-Methyl-N-{4-methyl-3-[6-(pyridin-3-yl)-1H-imidazo[1,2-b]pyrazol-1-yl]phenyl}-5-(pentafluoro-λ^6-sulphanyl)benzamide] | 2 nM
Cc1ccc(-n2ccn3nc(-c4cccnc4)cc23)cc1NC(=O)c1cc(C#N)cc(C(C)(C)C)c1 [Example 79] | 26 nM
Cc1cc(C)c(-n2ccn3nc(-c4cccnc4)cc23)cc1NC(=O)c1cccc(OCCO)c1 [Example 136, N-{2,4-Dimethyl-5-[6-(pyridin-3-yl)-1H-imidazo[1,2-b]pyrazol-1-yl]phenyl}-3-(2-hydroxyethoxy)benzamide] | 687 nM
Cc1ccc(NC(=O)c2cc(S(C)(=O)=O)cc(S(F)(F)(F)(F)F)c2)cc1-n1ccn2nc(-c3cncs3)cc12 [Example 176, 3-(Methylsulphonyl)-N-{4-methyl-3-[6-(1,3-thiazol-5-yl)-1H-imidazo[1,2-b]pyrazol-1-yl]phenyl}-5-(pentafluoro-λ^6-sulphanyl)benzamide] | 0.8 nM
Cc1cc(C)c(-n2ccn3nc(-c4cncnc4)cc23)cc1NC(=O)c1cccc(S(F)(F)(F)(F)F)c1 [Example 164, N-{2,4-Dimethyl-5-[6-(pyrimidin-5-yl)-1H-imidazo[1,2-b]pyrazol-1-yl]phenyl}-3-(pentafluoro-λ^6-sulphanyl)benzamide] | 0.4 nM
Cc1ccc(NC(=O)c2cc(C3(O)CNC3)cc(S(F)(F)(F)(F)F)c2)cc1-n1ccn2nc(-c3cccnc3)cc12 [Example 37, 3-(3-Hydroxyazetidin-3-yl)-N-{4-methyl-3-[6-(pyridin-3-yl)-1H-imidazo[1,2-b]pyrazol-1-yl]-phenyl}-5-(pentafluoro-λ^6-sulphanyl)benzamide bis(trifluoroacetate)] | 0.4 nM
Cc1ccc(NC(=O)c2cc(C#N)cc(S(F)(F)(F)(F)F)c2)cc1-n1ccn2nc(-c3ccnnc3)cc12 [Example 168, 3-Cyano-N-{4-methyl-3-[6-(pyridazin-4-yl)-1H-imidazo[1,2-b]pyrazol-1-yl]phenyl}-5-(pentafluoro-λ^6-sulphanyl)benzamide] | 726 nM
Cc1ccc(NC(=O)c2cc(N3CCNCC3)cc(S(F)(F)(F)(F)F)c2)cc1-n1ccn2nc(-c3cn[nH]c3)cc12 [Example 1, N-{4-Methyl-3-[6-(1H-pyrazol-4-yl)-1H-imidazo[1,2-b]pyrazol-1-yl]phenyl}-3-(pentafluoro-λ^6-sulphanyl)-5-(piperazin-1-yl)benzamide] | 0.3 nM
Cc1ccc(NC(=O)c2cccc(N(C)C)c2)cc1-n1ccn2nc(-c3cccnc3)cc12 [Example 59, 3-(Dimethylamino)-N-{4-methyl-3-[6-(pyridin-3-yl)-1H-imidazo[1,2-b]pyrazol-1-yl]phenyl}-benzamide] | 600 nM
COC(=O)Cc1cc(C(=O)Nc2cc(-n3ccn4nc(-c5cccnc5)cc34)c(C)cc2C)cc(S(F)(F)(F)(F)F)c1 [Example 152, Methyl [3-({2,4-dimethyl-5-[6-(pyridin-3-yl)-1H-imidazo[1,2-b]pyrazol-1-yl]phenyl}carbamoyl)-5-(pentafluoro-λ^6-sulphanyl)phenyl]acetate] | 0.4 nM
Cc1cc(C)c(-n2ccn3nc(-c4cn[nH]c4)cc23)cc1NC(=O)c1cc(C#N)cc(S(F)(F)(F)(F)F)c1 [Example 86, 3-Cyano-N-{2,4-dimethyl-5-[6-(1H-pyrazol-4-yl)-1H-imidazo[1,2-b]pyrazol-1-yl]phenyl}-5-(pentafluoro-λ^6-sulphanyl)benzamide] | 1.1 nM
Cc1ccc(NC(=O)c2cccc(S(F)(F)(F)(F)F)c2)cc1-n1ccn2nc(-c3cccnc3)cc12 [Example 15, N-{4-Methyl-3-[6-(pyridin-3-yl)-1H-imidazo[1,2-b]pyrazol-1-yl]phenyl}-3-(pentafluoro-λ^6-sulphanyl)benzamide] | 24 nM
Cc1ccc(NC(=O)c2cc(C#N)cc(S(F)(F)(F)(F)F)c2)cc1-n1ccn2nc(-c3cncs3)cc12 [Example 177, 3-Cyano-N-{4-methyl-3-[6-(1,3-thiazol-5-yl)-1H-imidazo[1,2-b]pyrazol-1-yl]phenyl}-5-(pentafluoro-λ^6-sulphanyl)benzamide] | 1.8 nM
N#Cc1cc(C(=O)Nc2cccc(-n3ccn4nc(-c5cccnc5)cc34)c2)cc(S(F)(F)(F)(F)F)c1 [Example 87, 3-Cyano-5-(pentafluoro-λ^6-sulphanyl)-N-{3-[6-(pyridin-3-yl)-1H-imidazo[1,2-b]pyrazol-1-yl]-phenyl}benzamide] | 980 nM
Cc1ccc(NC(=O)c2cc(C(C)(C)C)cc(C(C)(C)O)c2)cc1-n1ccn2nc(-c3cccnc3)cc12 [Example 49, 3-tert-Butyl-5-(2-hydroxypropan-2-yl)-N-{4-methyl-3-[6-(pyridin-3-yl)-1H-imidazo[1,2-b]-pyrazol-1-yl]phenyl}benzamide] | 0.3 nM
Cc1ccc(NC(=O)c2cc(N3CCNCC3)cc(S(F)(F)(F)(F)F)c2)cc1-n1ccn2nc(-c3cccnc3)cc12 [Example 17, N-{4-Methyl-3-[6-(pyridin-3-yl)-1H-imidazo[1,2-b]pyrazol-1-yl]phenyl}-3-(pentafluoro-λ^6-sulphanyl)-5-(piperazin-1-yl)benzamide] | 0.3 nM
Cc1ccc(NC(=O)c2cc(C#N)cc(C(C)(C)C)c2)cc1-n1ccn2nc(-c3cccnc3)cc12 [Example 50, 3-tert-Butyl-5-cyano-N-{4-methyl-3-[6-(pyridin-3-yl)-1H-imidazo[1,2-b]pyrazol-1-yl]phenyl}-benzamide] | 1.2 nM
Cc1c(Cl)cc(NC(=O)c2cccc(S(F)(F)(F)(F)F)c2)cc1-n1ccn2nc(-c3cccnc3)cc12 [Example 106, N-{3-Chloro-4-methyl-5-[6-(pyridin-3-yl)-1H-imidazo[1,2-b]pyrazol-1-yl]phenyl}-3-(pentafluoro-λ^6-sulphanyl)benzamide] | 110 nM
Cc1cc(C)c(-n2ccn3nc(-c4cccnc4)cc23)cc1NC(=O)c1cc(Br)cc(S(F)(F)(F)(F)F)c1 [Example 109, 3-Bromo-N-{2,4-dimethyl-5-[6-(pyridin-3-yl)-1H-imidazo[1,2-b]pyrazol-1-yl]phenyl}-5-(pentafluoro-λ^6-sulphanyl)benzamide] | 0.5 nM
Cc1ccc(NC(=O)c2cccc(S(F)(F)(F)(F)F)c2)cc1-n1ccn2nc(-c3cccnc3)c(F)c12 [Example 158, N-{3-[7-Fluoro-6-(pyridin-3-yl)-1H-imidazo[1,2-b]pyrazol-1-yl]-4-methylphenyl}-3-(pentafluoro-λ^6-sulphanyl)benzamide] | 58 nM
COC1CN(c2cc(C(=O)Nc3cc(-n4ccn5nc(-c6cccnc6)cc45)c(C)cc3C)cc(S(F)(F)(F)(F)F)c2)C1 [Example 146, N-{2,4-Dimethyl-5-[6-(pyridin-3-yl)-1H-imidazo[1,2-b]pyrazol-1-yl]phenyl}-3-(3-methoxyazetidin-1-yl)-5-(pentafluoro-λ^6-sulphanyl)benzamide] | 0.7 nM
Cc1cc(C)c(-n2ccn3nc(-c4cccnc4)cc23)cc1NC(=O)c1cccc(OCC(F)(F)F)c1 [Example 130, N-{2,4-Dimethyl-5-[6-(pyridin-3-yl)-1H-imidazo[1,2-b]pyrazol-1-yl]phenyl}-3-(2,2,2-trifluoroethoxy)benzamide] | 24 nM
Cc1cc(C)c(-n2ccn3nc(-c4cncnc4)cc23)cc1NC(=O)c1cc(Br)cc(S(F)(F)(F)(F)F)c1 [Example 165, 3-Bromo-N-{2,4-dimethyl-5-[6-(pyrimidin-5-yl)-1H-imidazo[1,2-b]pyrazol-1-yl]phenyl}-5-(pentafluoro-λ^6-sulphanyl)benzamide] | 1.7 nM
